Laboratory results: US20250241923A1, “A DUAL SELECTIVE PI3K DELTA AND GAMMA INHIBITORS AND/OR A SALT-INDUCIBLE KINASE 3 INHIBITOR FOR TREATING SOLID TUMORS” (Incozen Therapeutics Pvt. Ltd, priority 2022, published 2025)
pEC50, pIC50: −log10 of the molar value.

Tests used:
[1] = Pharmacokinetics, oral bioavailability in rats; format: in vivo; conditions: rat, plasma
Method: (§1) Pharmacokinetic studies following single-dose and repeat dose administration were performed in mice, rats, dogs, humans and monkeys. Tenalisib plasma concentrations were determined by a validated LC-MS/MS method. The pharmacokinetic profile of tenalisib was evaluated following both oral and intravenous administration. […] In an in vitro study using liver microsomes, the metabolic stability followed a rank order of rat>human>dog>monkey>mouse.

[2] = Pharmacokinetics, oral bioavailability in mice; format: in vivo; conditions: mouse, plasma
Method: as §1

[3] = Pharmacokinetic studies, absorption and clearance across the tested species; format: in vivo, mice, rats, dogs, humans and monkeys
Method: as §1

plasma proteins [4] = assay: In vitro protein binding, rat plasma; format: in vitro ADME
Method: (§2) In vitro protein binding studies were performed using rat, dog, monkey and human plasma. Binding of tenalisib to plasma proteins was >96% across all species.

plasma proteins [5] = assay: In vitro protein binding, dog plasma; format: in vitro ADME
Method: as §2

plasma proteins [6] = assay: In vitro protein binding, monkey plasma; format: in vitro ADME
Method: as §2

plasma proteins [7] = assay: In vitro protein binding, human plasma; format: in vitro ADME
Method: as §2

[8] = In vitro plasma stability, dog plasma; format: in vitro ADME; conditions: LC-MS/MS
Method: (§3) In vitro plasma stability studies were performed using rat, dog, monkey and human plasma. The concentration of tenalisib was measured by LC-MS/MS.

[9] = In vitro plasma stability, monkey plasma; format: in vitro ADME; conditions: LC-MS/MS
Method: as §3

[10] = Tissue distribution upon single oral administration; format: in vivo; conditions: single oral administration 10 mg/kg bodyweight; male wistar rats
Method: Tissue distribution upon single oral administration (10 mg/kg bodyweight) of tenalisib was studied in male wistar rats. The rank order of Cmax and AUC in Wistar rats was liver>kidney>heart>plasma>thymus>spleen>serum>lung>blood>brain.

[11] = Metabolic stability in liver microsomes, rat; format: in vitro ADME
Description: (§4) In in vitro studies using liver microsomes, the metabolic stability of tenalisib followed the rank order of rat>human>dog>monkey>mouse (Table 3).

[12] = Metabolic stability in liver microsomes, dog; format: in vitro ADME
Description: as §4

[13] = Metabolic stability in liver microsomes, monkey; format: in vitro ADME
Description: as §4

[14] = Metabolic stability in liver microsomes, human; format: in vitro ADME
Description: as §4

[15] = Metabolic stability in liver microsomes, rank order across species; format: in vitro ADME, rat, human, dog, monkey, mouse
Method: as §1, §4

PI3Kγ = PI3Kγ (Homo sapiens, UniProt P48736); assay: PI3K isoform enzyme assay (HTRF), PI3Kγ; format: biochemical; conditions: 100 μM ATP
Sequence of PI3Kγ (P48736 whole entry, canonical isoform): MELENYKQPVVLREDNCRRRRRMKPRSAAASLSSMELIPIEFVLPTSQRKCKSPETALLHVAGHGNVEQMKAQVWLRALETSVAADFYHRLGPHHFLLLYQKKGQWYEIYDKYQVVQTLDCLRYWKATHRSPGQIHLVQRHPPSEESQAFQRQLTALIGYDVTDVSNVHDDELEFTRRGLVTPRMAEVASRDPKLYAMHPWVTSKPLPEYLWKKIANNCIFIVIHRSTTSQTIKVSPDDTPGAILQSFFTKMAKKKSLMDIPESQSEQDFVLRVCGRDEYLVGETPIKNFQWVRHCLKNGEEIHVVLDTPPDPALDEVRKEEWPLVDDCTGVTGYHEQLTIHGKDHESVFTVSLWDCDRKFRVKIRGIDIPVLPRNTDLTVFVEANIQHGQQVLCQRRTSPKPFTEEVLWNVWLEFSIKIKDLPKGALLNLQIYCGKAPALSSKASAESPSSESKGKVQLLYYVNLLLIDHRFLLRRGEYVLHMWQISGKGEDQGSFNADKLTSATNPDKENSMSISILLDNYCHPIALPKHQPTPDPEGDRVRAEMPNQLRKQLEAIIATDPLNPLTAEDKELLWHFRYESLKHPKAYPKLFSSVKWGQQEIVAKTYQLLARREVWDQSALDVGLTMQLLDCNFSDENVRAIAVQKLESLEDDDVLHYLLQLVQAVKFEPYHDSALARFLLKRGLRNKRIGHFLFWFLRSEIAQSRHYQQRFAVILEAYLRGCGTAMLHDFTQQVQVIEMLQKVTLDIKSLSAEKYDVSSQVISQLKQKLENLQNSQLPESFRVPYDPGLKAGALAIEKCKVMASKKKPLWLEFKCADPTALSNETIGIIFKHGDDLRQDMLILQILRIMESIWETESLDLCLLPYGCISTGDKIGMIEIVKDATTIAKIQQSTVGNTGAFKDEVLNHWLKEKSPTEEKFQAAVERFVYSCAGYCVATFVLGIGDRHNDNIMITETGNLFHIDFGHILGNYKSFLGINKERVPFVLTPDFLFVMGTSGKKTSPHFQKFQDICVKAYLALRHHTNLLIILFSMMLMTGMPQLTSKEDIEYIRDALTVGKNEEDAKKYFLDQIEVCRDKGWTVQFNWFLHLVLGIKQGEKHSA

PI3Kβ [16] = biological target: PI3Kβ (Homo sapiens, UniProt P42338); assay: PI3K isoform enzyme assay (HTRF), PI3Kβ; format: biochemical; conditions: 100 μM ATP
PI3Kβ [17] = biological target: T1, PI3Kβ (Mus musculus, UniProt Q8BTI9); assay: PI3K isoform cell-based assay: PI3K β-mediated phosphorylation of AKT in 3T3 fibroblasts; conditions: pAKT by PDGF or lysophosphatidic acid in 3T3 fibroblasts
T1 construct: endogenous in cells; host or cells: 3T3 fibroblasts (pAKT)
T1 sequence (Q8BTI9 whole entry, canonical isoform): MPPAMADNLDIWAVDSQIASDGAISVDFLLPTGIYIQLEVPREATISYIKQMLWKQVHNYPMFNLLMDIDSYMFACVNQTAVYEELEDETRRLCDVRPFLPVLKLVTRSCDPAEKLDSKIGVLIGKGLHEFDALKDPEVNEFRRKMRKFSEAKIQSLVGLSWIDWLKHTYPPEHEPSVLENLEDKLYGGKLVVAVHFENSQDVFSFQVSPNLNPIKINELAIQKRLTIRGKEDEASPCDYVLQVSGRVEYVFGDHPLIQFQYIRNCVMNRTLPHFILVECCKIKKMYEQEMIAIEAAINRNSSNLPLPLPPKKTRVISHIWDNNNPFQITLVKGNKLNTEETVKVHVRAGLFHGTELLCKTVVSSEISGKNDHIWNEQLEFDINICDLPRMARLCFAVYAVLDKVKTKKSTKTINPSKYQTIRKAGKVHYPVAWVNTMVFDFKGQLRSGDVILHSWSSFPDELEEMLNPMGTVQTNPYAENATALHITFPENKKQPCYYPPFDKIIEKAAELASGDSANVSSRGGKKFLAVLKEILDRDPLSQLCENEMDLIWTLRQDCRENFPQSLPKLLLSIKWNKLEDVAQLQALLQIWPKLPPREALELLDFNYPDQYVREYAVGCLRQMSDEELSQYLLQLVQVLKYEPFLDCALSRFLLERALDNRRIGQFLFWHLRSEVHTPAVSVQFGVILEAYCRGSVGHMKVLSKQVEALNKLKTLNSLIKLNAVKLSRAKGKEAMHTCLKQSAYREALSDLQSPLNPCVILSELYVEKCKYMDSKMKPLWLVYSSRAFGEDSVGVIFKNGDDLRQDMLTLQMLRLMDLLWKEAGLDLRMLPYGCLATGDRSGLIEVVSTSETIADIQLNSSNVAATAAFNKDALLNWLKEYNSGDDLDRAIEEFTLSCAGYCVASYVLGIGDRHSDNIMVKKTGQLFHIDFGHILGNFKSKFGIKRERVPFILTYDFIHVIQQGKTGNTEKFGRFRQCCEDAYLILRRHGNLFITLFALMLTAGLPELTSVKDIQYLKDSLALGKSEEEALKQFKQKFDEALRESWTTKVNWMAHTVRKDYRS
T1 sequence (P26450 whole entry partner, canonical isoform): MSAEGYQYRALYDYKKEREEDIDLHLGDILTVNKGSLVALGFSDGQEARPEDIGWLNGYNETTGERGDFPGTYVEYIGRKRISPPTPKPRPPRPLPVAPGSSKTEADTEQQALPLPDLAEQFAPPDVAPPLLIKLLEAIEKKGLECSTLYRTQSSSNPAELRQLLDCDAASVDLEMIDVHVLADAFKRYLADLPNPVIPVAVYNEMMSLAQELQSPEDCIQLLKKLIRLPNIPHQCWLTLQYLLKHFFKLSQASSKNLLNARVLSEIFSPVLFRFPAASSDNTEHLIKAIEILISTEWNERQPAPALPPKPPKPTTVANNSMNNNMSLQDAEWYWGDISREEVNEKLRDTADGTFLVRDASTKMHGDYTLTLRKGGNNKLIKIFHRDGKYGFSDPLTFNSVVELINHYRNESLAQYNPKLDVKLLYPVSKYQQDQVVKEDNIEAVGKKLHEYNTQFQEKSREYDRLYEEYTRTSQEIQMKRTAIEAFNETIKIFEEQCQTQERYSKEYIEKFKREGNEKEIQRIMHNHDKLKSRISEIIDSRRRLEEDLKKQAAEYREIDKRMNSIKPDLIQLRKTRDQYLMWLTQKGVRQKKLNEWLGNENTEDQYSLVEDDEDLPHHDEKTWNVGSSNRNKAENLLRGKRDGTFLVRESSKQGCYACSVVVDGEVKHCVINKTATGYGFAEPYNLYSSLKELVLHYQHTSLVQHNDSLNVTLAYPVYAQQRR

[18] = system: locally advanced or metastatic breast cancer; assay: Phase II randomized open label study in breast cancer patients; format: in vivo, human
Method: This is a Phase II, randomized, open label study, designed to evaluate the preliminary efficacy and safety of tenalisib (Compound A) at two dose levels (800 mg BID and 1200 mg BID) in 40 patients with locally advanced or metastatic breast cancer. 20 patients will be enrolled in each of Group 1 (tenalisib 800 mg BID) and Group 2 (tenalisib 1200 mg BID). Both groups will be run in parallel.
• 1. Provision of full informed consent prior to any study-specific procedures. • 2. Patients must be ≥18 years of age, at the time of signing informed consent. • 3. Female patients who have histologically and/or cytologically confirmed locally advanced or metastatic breast cancer that has progressed following at least one line of therapy. • 4. Patients with at least one measurable lesion per RECIST version 1.1 at baseline that can be accurately assessed by CT scan or MRI and is suitable for repeated assessment at follow up-visits. • 5. ECOG performance status 0 to 2. • 6. Life expectancy of at least 3 months. • 7. […] Female patient of childbearing potential should be willing to use a medically acceptable method of contraception as defined in Appendix B while participating in the study and for 30 days after the last dose of study drug AND must have a negative serum pregnancy test within 3 days prior to Cycle 1 Day 1 (C1D1). • 9. Ability to swallow and retain oral medication. • 10. Willingness and capability to comply with the study requirements.

PI3Kδ [19] = biological target: T2, PI3Kδ (Homo sapiens, UniProt O00329); assay: anti-FcεR1 induced CD63 expression in human whole blood; format: cell-based; parameters: endogenous in cells; host or cells: human whole blood (anti-FcεR1 induced CD63); conditions: whole blood from healthy human subjects; flow cytometry; read-out: EC50 of anti-FcεR1 (PI3Kδ) mediated CD63 expression
T2 sequence (O00329 whole entry, canonical isoform): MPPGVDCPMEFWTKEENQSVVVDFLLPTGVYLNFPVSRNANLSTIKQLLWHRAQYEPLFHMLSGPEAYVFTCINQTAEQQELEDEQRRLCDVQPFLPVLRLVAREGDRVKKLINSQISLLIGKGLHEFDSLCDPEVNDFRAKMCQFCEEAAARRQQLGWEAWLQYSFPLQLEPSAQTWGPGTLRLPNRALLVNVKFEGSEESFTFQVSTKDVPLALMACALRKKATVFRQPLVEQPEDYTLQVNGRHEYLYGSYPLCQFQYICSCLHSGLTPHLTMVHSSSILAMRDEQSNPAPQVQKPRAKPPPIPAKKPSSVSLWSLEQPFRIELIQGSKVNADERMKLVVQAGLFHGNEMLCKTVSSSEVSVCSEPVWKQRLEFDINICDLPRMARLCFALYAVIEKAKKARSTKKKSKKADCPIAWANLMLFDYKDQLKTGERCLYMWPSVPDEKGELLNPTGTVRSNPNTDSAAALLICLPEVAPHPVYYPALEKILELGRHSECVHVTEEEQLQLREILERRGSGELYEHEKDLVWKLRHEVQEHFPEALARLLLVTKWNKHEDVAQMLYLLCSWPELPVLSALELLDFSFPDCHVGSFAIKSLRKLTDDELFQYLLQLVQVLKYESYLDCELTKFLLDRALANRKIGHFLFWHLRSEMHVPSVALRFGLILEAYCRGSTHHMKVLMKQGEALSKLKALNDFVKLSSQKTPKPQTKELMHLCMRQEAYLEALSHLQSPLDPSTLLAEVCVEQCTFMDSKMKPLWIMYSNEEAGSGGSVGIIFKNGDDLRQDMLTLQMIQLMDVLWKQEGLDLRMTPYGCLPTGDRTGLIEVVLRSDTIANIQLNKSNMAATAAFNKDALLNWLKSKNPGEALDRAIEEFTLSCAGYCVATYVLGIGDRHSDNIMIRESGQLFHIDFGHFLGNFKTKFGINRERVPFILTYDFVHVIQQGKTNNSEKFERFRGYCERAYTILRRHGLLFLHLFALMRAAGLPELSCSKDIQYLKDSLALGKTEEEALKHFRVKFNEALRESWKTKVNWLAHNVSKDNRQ
T2 sequence (P27986 whole entry partner, canonical isoform): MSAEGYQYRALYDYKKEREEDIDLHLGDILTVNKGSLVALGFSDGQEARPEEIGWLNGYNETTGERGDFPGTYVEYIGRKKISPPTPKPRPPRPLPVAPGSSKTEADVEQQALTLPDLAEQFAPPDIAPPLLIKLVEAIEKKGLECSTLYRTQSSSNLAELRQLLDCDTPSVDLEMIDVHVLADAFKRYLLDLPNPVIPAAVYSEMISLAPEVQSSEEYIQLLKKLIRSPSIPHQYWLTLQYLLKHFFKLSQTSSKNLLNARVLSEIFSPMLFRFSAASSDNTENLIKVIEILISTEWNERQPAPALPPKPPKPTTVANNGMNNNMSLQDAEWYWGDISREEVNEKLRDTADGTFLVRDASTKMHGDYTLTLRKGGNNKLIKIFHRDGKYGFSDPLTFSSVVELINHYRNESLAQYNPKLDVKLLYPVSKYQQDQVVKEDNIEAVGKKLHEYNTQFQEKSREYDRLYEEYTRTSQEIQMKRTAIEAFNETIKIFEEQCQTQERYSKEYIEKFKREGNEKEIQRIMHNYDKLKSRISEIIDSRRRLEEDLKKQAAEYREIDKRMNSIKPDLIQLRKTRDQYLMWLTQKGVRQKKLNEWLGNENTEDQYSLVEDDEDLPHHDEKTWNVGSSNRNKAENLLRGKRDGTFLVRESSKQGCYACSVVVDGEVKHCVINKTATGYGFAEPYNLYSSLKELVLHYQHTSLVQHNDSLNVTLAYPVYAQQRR

PI3Kδ [20] = biological target: T2, PI3Kδ; assay: PI3K isoform cell-based assay: anti-IgM induced human B-cell proliferation; parameters: endogenous in cells; host or cells: human B cells (anti-IgM proliferation); human whole blood (anti-FcεR1 induced CD63)

Structure (SMILES): CC[C@H](Nc1ncnc2[nH]cnc12)c1oc2ccccc2c(=O)c1-c1cccc(F)c1 [Compound A, (S)-2-(1-(9H-purin-6-ylamino)propyl)-3-(3-fluorophenyl)-4H-chromen-4-one]
- bioavailability [1]: > 72.4%
- bioavailability [2]: 21.6%
- Absorption [3]: rapid
- clearance [3]: moderate
- Binding to plasma proteins (plasma proteins [4]): > 96%
- Binding to plasma proteins (plasma proteins [5]): > 96%
- Binding to plasma proteins (plasma proteins [6]): > 96%
- Binding to plasma proteins (plasma proteins [7]): > 96%
- plasma stability [8]: stable
- plasma stability [9]: stable
- rank order of Cmax and AUC in tissues [10]: liver>kidney>heart>plasma>thymus>spleen>serum>lung>blood>brain
- % Metabolic Stability [11]: 79.3%
- % Metabolic Stability [12]: 52.2%
- % Metabolic Stability [13]: 29.6%
- % Metabolic Stability [14]: 73.9%
- metabolic stability rank order [15]: rat>human>dog>monkey>mouse
- pIC50 (PI3Kγ): 7.48
- pIC50 (PI3Kβ [16]): 5.40
- pEC50 (PI3Kβ [17]): 5.68
- Clinical Benefit Rate, % (CBR = PR + CR + SD ≥24 weeks) ([18]; 800 mg BID (N = 20)): (55) %
- Clinical Benefit Rate, n (CBR = PR + CR + SD ≥24 weeks) ([18]; 800 mg BID (N = 20)): 11
- Disease Control rate (DCR), % ([18]; 800 mg BID (N = 20)): (65) %
- Duration of Clinical Benefit, median ([18]; 800 mg BID (N = 20)): 9.36
- Duration of Response (DOR) in ORR patients, median ([18]; 800 mg BID (N = 20)): 7.53
- Duration of Treatment (DOT), median ([18]; 800 mg BID (N = 20)): 5.55
- Objective Response rate (ORR), % ([18]; 800 mg BID (N = 20)): (10) %
- Partial Response, % ([18]; 800 mg BID (N = 20)): (10) %
- Progressive disease, % ([18]; 800 mg BID (N = 20)): (25) %
- Stable disease, % ([18]; 800 mg BID (N = 20)): (55) %
- Clinical Benefit Rate, % (CBR = PR + CR + SD ≥24 weeks) ([18]; 1200 mg BID (N = 20)): (60) %
- Clinical Benefit Rate, n (CBR = PR + CR + SD ≥24 weeks) ([18]; 1200 mg BID (N = 20)): 12
- Disease Control rate (DCR), % ([18]; 1200 mg BID (N = 20)): (70) %
- Duration of Clinical Benefit, median ([18]; 1200 mg BID (N = 20)): 7.46
- Duration of Response (DOR) in ORR patients, median ([18]; 1200 mg BID (N = 20)): 9.36
- Duration of Treatment (DOT), median ([18]; 1200 mg BID (N = 20)): 5.63
- Objective Response rate (ORR), % ([18]; 1200 mg BID (N = 20)): (15) %
- Partial Response, % ([18]; 1200 mg BID (N = 20)): (15) %
- Progressive disease, % ([18]; 1200 mg BID (N = 20)): (20) %
- Stable disease, % ([18]; 1200 mg BID (N = 20)): (55) %
- Clinical Benefit Rate, % (CBR = PR + CR + SD ≥24 weeks) ([18]; All (N = 40)): (57.5) %
- Clinical Benefit Rate, n (CBR = PR + CR + SD ≥24 weeks) ([18]; All (N = 40)): 23
- Disease Control rate (DCR), % ([18]; All (N = 40)): (67.5) %
- Duration of Clinical Benefit, median ([18]; All (N = 40)): 7.46
- Duration of Response (DOR) in ORR patients, median ([18]; All (N = 40)): 9.36
- Duration of Treatment (DOT), median ([18]; All (N = 40)): 5.60
- Objective Response rate (ORR), % ([18]; All (N = 40)): (12.5) %
- Partial Response, % ([18]; All (N = 40)): (12.5) %
- Progressive disease, % ([18]; All (N = 40)): (22.5) %
- Stable disease, % ([18]; All (N = 40)): (55) %
- pEC50 (PI3Kδ [19]): 7.41
- selectivity over the α and β isoforms (cell-based assay) (PI3Kδ [20]; PI3K δ/γ versus PI3K α and β): selective
- pEC50 (PI3Kδ [20]; anti-IgM induced human B-cell proliferation): 7.42
